Literature values as cited in patent publication US20080089936A1, “PROLONGED RELEASE FORMULATION OF ACTIVE PRINCIPLES HAVING A PH-DEPENDENT SOLUBILITY” (SANOFI-AVENTIS, priority 2005, published 2008).

Conditions: hypnotic agent, oral

SMILES: Cc1ccc(-c2nc3ccc(C)cn3c2CC(=O)N(C)C)cc1 [zolpidem]
- duration of action: up to 6 hours
